Assay results from article PMC5717651, “Biotransformation of labdane and halimane diterpenoids by two filamentous fungi strains” (Royal Society Open Science, 2017).
Read-outs that look alike come from different tables or passages of the source.

Experiments:
[1] = biological target: T1, human recombinant acetylcholinesterase (Hr-AChE) (Homo sapiens, UniProt P22303); test: biochemical; settings: for inhibition at 100 µM: pH 8, at 100 µM compound, 70 µM acetylcholine, ammonium acetate 15.0 mM, pH 8.0, n = 3, read-out: % inhibition ± s.e.m. ICER-AChEhr; for inhibitory activity on Hr-AChE (in words): authors' verbal rating
T1 construct: purchased Sigma-Aldrich C1682
Description: (§1) Hr-AChE-ICER and Hu-BChE-ICER were prepared by covalent enzyme immobilization onto fused silica capillary tubing (30 cm × 0.375 mm × 100 µm I.D.) according to a previously described procedure. Resulting ICERs were connected to an on-flow LC-IT-MS/MS system (EMU FAPESP—Proc. PROEM 2014/50299-5) as biochromatography columns.
(§2) LC system (Shimadzu, Kyoto, Japan) consisted of two Nexera LC-20ADXR pumps, an SIL 20A auto sampler, with a 50 µl loop, a DGU-20A5 degasser and a CBM-20 interface. LC equipment was connected to an AmaZon Speed Ion Trap Mass Spectrometer equipped with an ESI source, operating in positive ion mode. Data were acquired using software Data Analysis 4.1 (Bruker Daltonics). LC analyses were performed at 25°C. Enzymatic reactions were monitored by direct quantification of choline (Ch, [M + H]^+ m/z 104), the hydrolysis product of ACh.
(§3) Samples were solubilized in methanol to provide a stock solution of 1.00 mM for each compound. Assay samples (100 µl) were prepared using 10 µl of stock solution (100 µM final concentration), 20 µl of acetylcholine solution (70 µM final concentration) and 70 µl of ammonium acetate solution (15.0 mM, pH 8.0). Solutions were prepared in duplicate and 20 µl aliquots were used for injection. Negative (absence of ACh) and positive (presence of ACh and absence of ligand) controls were analysed between each AChEI sample.

[2] = biological target: T2, human serum butyrylcholinesterase (Hu-BChE) (Homo sapiens, UniProt P06276); test: On-flow Hu-BChE-ICER-IT-MS/MS screening assay (hydrolysis of acetylcholine, choline quantified); type: biochemical; settings: for inhibitory activity on Hu-BChE (in words): authors' verbal rating
T2 construct: purchased Sigma-Aldrich B4186; host or cells: human serum
Description: as §1, §2, §3

[3] = immobilized Hr-AChE capillary reactor (ICER), read-out: IC50 AChEhr
[4] = at 100 µM compound, 70 µM acetylcholine, ammonium acetate 15.0 mM, pH 8.0, n = 3, read-out: % inhibition ± s.e.m. ICER-BChEhu

T2 sequence (P06276 29-602): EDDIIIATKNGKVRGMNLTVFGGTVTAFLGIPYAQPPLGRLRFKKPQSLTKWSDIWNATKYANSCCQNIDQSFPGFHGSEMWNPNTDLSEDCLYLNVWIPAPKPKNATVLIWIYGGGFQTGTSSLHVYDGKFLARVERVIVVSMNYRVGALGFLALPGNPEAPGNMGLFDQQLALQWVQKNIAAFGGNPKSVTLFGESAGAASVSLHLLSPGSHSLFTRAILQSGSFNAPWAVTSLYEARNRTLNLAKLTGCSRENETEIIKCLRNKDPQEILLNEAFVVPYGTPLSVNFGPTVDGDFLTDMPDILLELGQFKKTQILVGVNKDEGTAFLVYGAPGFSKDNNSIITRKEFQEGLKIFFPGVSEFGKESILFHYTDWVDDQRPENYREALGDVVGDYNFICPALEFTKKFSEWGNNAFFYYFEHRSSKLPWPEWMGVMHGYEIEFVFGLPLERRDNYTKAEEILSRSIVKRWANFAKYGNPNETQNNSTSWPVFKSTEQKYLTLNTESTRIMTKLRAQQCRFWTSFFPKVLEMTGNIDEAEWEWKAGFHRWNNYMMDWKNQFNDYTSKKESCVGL
T1 sequence (P22303 32-614): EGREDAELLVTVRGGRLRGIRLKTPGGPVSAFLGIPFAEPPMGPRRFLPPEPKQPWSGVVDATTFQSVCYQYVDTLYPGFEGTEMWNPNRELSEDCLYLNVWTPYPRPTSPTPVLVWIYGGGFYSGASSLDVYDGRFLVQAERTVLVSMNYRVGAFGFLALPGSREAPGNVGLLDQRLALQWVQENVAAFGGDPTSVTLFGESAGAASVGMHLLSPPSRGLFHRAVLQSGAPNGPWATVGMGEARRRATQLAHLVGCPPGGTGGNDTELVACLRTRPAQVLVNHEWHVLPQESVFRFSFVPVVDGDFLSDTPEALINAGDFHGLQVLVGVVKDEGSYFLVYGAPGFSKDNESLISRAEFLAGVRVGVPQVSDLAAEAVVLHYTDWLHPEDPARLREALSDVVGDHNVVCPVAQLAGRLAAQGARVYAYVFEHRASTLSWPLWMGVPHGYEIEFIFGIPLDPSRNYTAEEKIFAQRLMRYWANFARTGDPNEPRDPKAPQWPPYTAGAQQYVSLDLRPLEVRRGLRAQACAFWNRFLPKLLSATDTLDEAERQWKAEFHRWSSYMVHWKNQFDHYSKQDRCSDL

Row | SMILES | IC50 [1, 3] [µM] | inhibition at 100 µM [1] [%] | inhibition at 100 µM [2, 4] [%] | inhibitory activity on Hr-AChE (in words) [1] | inhibitory activity on Hu-BChE (in words) [2] | IC50 [1] [µM] | inhibition at 100 µM ([2]; pH 8, read-out: % inhibition ± s.e.m. ICER-BChEhu) [%]
1 | C/C(=C\C(=O)O)CC[C@H]1[C@](C)(O)[C@H](O)C[C@H]2C(C)(C)CCC[C@@]21C (relative stereo) [Compound 7, (-)-(5S*, 7R*, 8R*, 9R*, 10S*)-Lab-13-en-7α,8α-diol-15-oic acid] | > 100 | 4.71 ± 0.11 | 20.1 ± 1.73 | – | – | – | –
2 | C/C(=C\C(=O)O)CC[C@@H]1[C@@]2(C)CC[C@H](O)C(C)(C)[C@@H]2CC[C@@]1(C)O (relative stereo) [Compound 8, (+)-(3S*, 5S*, 8R*, 9R*, 10S*)-Lab-13-en-3β,8α-diol-15-oic acid] | 95.7 ± 1.7 | ~50 | 13.3 ± 2.62 | weakly active | – | – | –
3 | C/C(=C\C(=O)O)CC[C@]1(C)C2=CCC[C@@](C)(CO)[C@H]2CC[C@H]1C [Compound 1, (+)-(4R, 5S, 8R, 9S)-18-Hydroxy-ent-halima-1(10),13-(E)-dien-15-oic acid] | > 100 | 24.96 ± 0.04 | 36.09 ± 0.28 | weak inhibitory activity | weak inhibitory activity | – | –
4 | C/C(=C\C(=O)O)CC[C@@H]1[C@@]2(C)CCCC(C)(C)[C@@H]2CC[C@@]1(C)O [Compound 2, (+)-(5S, 8R, 9R, 10S)-Lab-13-en-8α-ol-15-oic acid] | – | 26.5 ± 3.1 | 13.3 ± 0.39 | weak inhibitory activity | weak inhibitory activity | > 100 | –
5 | C/C(=C\C(=O)O)CC[C@]1(C)C2=CC(=O)C[C@@](C)(CO)[C@H]2CC[C@H]1C [Compound 3, (+)-(4R, 5S, 8R, 9S)-2-Oxo-18-hydroxy-ent-halima-1(10),13-(E)-dien-15-oic acid] | > 100 | 30.13 ± 0.3 | 14.5 ± 2.47 | – | – | – | –
6 | C/C(=C\C(=O)O)CC[C@]1(C)C2=CCCC(CO)(CO)[C@H]2CC[C@H]1C [Compound 4, (+)-(5S, 8R, 9S)-18,19-Dihydroxy-ent-halima-1(10),13-(E)-dien-15-oic acid] | > 100 | 39.4 ± 3.86 | 14.5 ± 2.42 | – | – | – | –
7 | C/C(=C\C(=O)O)CC[C@]1(C)C2=CCC[C@@](C)(C(=O)O)[C@H]2CC[C@H]1C [Compound 5, (+)-(4R, 5S, 8R, 9S)-18-Carboxy-ent-halima-1(10),13-(E)-dien-15-oic acid] | > 100 | ~50 | 8.17 ± 1.32 | inactive | – | – | –
8 | C/C(=C\C(=O)O)CC[C@]1(C)C2=CCC[C@@](C)(C=O)[C@H]2CC[C@H]1C [Compound 6, (+)-(4R, 5S, 8R, 9S)-18-Formyl-ent-halima-1(10),13-(E)-dien-15-oic acid] | > 100 | 3.23 ± 1.7 | 25.07 ± 0.14 | – | – | – | –
9 | COc1ccc2c3c1O[C@H]1C[C@@H](O)C=C[C@@]31CCN(C)C2 [Gal, Galanthamine, reference compound] | – | – | – | – | – | – | 75.8 ± 1.74
